Reference: PMC5602100, “Retro analog concept: comparative study on physico-chemical and biological properties of selected antimicrobial peptides” (Amino Acids, 2017)
Read-outs that look alike come from different tables or passages of the source. Ends that are not written are not given here.

Experiments:
S. aureus ATCC 9144 = system: S. aureus ATCC 9144
Protocol: (§1) The minimal inhibitory concentrations (MICs) for bacteria and fungi were determined by the broth microdilution method according to the Clinical and Laboratory Standards Institute (CLSI) protocol (Clinical and Laboratory Standards Institute (CLSI) [2002], [2012]). For this purpose, the initial inoculums of bacteria (5 × 10^5 CFU/mL) in Mueller–Hinton Broth (Biocorp, Warsaw, Poland) were exposed to the ranging concentrations of compounds (0.125–256 µg/mL) and incubated for 18 h at 37 °C. In case of fungi, the initial inoculums of 2 × 10^3 CFU/mL in RPMI-1640 (Sigma-Aldrich, Steinheim, Germany) were exposed to the ranging concentrations of compounds (0.5–256 µg/mL) and incubated for 24 h at 37 °C. The experiments were conducted on 96-well microtiter plates, with the final volume of 100 µL. Cell densities were adjusted spectrophotometrically (Multiskan™ GO Microplate Spectrophotometer, Thermo Scientific) at the wavelengths of 600 nm for bacteria and 530 nm for fungi. The MIC was taken as the lowest drug concentration at which a noticeable growth of microorganisms was inhibited. Reference strains of bacteria: Escherichia coli ATCC 25922, E. coli ATCC 23506, Enterococcus faecalis PCM 2673, Klebsiella pneumoniae ATCC 700603, Pseudomonas aeruginosa ATCC 9027, Staphylococcus aureus ATCC 25923, S. aureus 9144, Streptococcus pneumoniae ATCC 49619, and fungi: Aspergillus niger ATCC 16404, Candida albicans ATCC 10231, and C. glabrata ATCC 15126 were obtained from Polish Collection of Microorganisms (PCM, Polish Academy of Sciences, Wroclaw, Poland) and from American Type Culture Collection (ATCC). All experiments were conducted in triplicate.

S. pneumoniae ATCC 49619 = system: S. pneumoniae ATCC 49619
Protocol: as §1

E. coli ATCC 23506 = system: E. coli ATCC 23506
Protocol: as §1

C. glabrata ATCC 15126 = system: C. glabrata ATCC 15126
Protocol: as §1

P. aeruginosa ATCC 9027 = system: P. aeruginosa ATCC 9027
Protocol: as §1

A. niger ATCC 16404 = system: A. niger ATCC 16404
Protocol: as §1

C. albicans ATCC 10231 = system: C. albicans ATCC 10231
Protocol: as §1

[1] = system: K. pneumoniae ATCC 700603
Protocol: as §1

S. aureus ATCC 25923 = system: S. aureus ATCC 25923
Protocol: as §1

E. coli ATCC 25922 = system: E. coli ATCC 25922
Protocol: as §1

E. faecalis PCM 2673 = system: E. faecalis PCM 2673
Protocol: as §1

[2] = system: human red blood cells (RBCs); test: Hemolysis assay; type: cell-based; details: fresh human RBCs 4% (v/v) in PBS, 60 min at 37 °C, absorbance 540 nm, 100% control 1% Triton-X 100, triplicate
Protocol: The hemolysis assay was conducted according to the procedure described previously in the literature (Avrahami and Shai [2004]). Fresh human red blood cells (RBCs) with EDTA as anticoagulant were rinsed three times with a phosphate-buffer saline (PBS) by centrifugation at 800×g for 10 min and resuspended in PBS. Serial dilution of peptides (1–512 µg/mL) was conducted in PBS on 96-well plates. Then the stock solution of RBCs was added to reach a final volume of 100 µL with a 4% concentration of erythrocytes (v/v). The control wells for 0 and 100% hemolysis consisted of RBCs suspended in PBS and 1% of Triton-X 100, respectively. Subsequently, the plates were incubated for 60 min at 37 °C and then centrifuged at 800×g for 10 min at 4 °C (Sorvall ST 16R Centrifuge, Thermo Scientific). After centrifugation the supernatant was carefully […] to new microtiter plates and the release of hemoglobin was monitored by measurement of absorbance at 540 nm (Multiskan™ GO Microplate Spectrophotometer, Thermo Scientific). All experiments were conducted in triplicate.

[3] = broth microdilution (CLSI), 2 × 10^3 CFU/mL in RPMI-1640, 0.5–256 µg/mL, 24 h at 37 °C, triplicate
[4] = broth microdilution (CLSI), 5 × 10^5 CFU/mL in Mueller–Hinton Broth, 0.125–256 µg/mL, 18 h at 37 °C, triplicate

Substance	MIC, S. aureus ATCC 9144 (S. aureus ATCC 9144; ATCC 9144, 18 h) [µg/mL]	MIC, S. pneumoniae ATCC 49619 (S. pneumoniae ATCC 49619; ATCC 49619, 18 h) [µg/mL]	MIC, E. coli ATCC 23506 (E. coli ATCC 23506; ATCC 23506, 18 h) [µg/mL]	MIC, C. glabrata ATCC 15126 (C. glabrata ATCC 15126; ATCC 15126, 24 h) [µg/mL]	MIC, P. aeruginosa ATCC 9027 (P. aeruginosa ATCC 9027; ATCC 9027, 18 h) [µg/mL]	MIC, A. niger ATCC 16404 (A. niger ATCC 16404; ATCC 16404, 24 h) [µg/mL]	MIC, C. albicans ATCC 10231 (C. albicans ATCC 10231; ATCC 10231, 24 h) [µg/mL]	MIC, K. pneumoniae ATCC 700603 ([1]; ATCC 700603, 18 h) [µg/mL]	MIC, S. aureus ATCC 25923 (S. aureus ATCC 25923; ATCC 25923, 18 h) [µg/mL]	MIC, E. coli ATCC 25922 (E. coli ATCC 25922; ATCC 25922, 18 h) [µg/mL]	MIC, E. faecalis PCM 2673 (E. faecalis PCM 2673; PCM 2673, 18 h) [µg/mL]	rate of hemolysis at MIC concentrations [2]	MIC, C. glabrata ATCC 15126 (C. glabrata ATCC 15126; [3]) [µg/mL]	MIC, A. niger ATCC 16404 (A. niger ATCC 16404; [3]) [µg/mL]	MIC, C. albicans ATCC 10231 (C. albicans ATCC 10231; [3]) [µg/mL]	MIC, K. pneumoniae ATCC 700603 [1, 4] [µg/mL]	other results
GIGKFLKKAKKFGKAFVKILKK-NH2 [pexiganan]	8	1	2	256	2	16	256	1	8	4	16	–	–	–	–	–	–
FSEAIKKIIDFLG-NH2 [r-aurein 1.2]	>256	256	256	>256	>256	>256	>256	128	>256	256	256	–	–	–	–	–	–
GLFDVIKKVASVIGGL-NH2 [citropin 1.1]	16	32	32	128	128	64	128	16	16	32	32	–	–	–	–	–	–
LIGSLVRGILPLF-NH2 [r-temporin A]	64	>256	256	>256	256	256	256	128	64	256	256	–	–	–	–	–	–
GLFDIIKKIAESF-NH2 [aurein 1.2]	128	64	128	–	256	–	–	–	128	128	64	lower than 10%	128	64	128	16	–
LVKLVAGIKKFLKWK-NH2 [r-CAMEL]	–	–	–	–	–	–	–	–	–	–	–	below 10%	>256	256	256	2	MIC, S. aureus ATCC 9144 (S. aureus ATCC 9144; [4]): 64 µg/mL; MIC, S. pneumoniae ATCC 49619 (S. pneumoniae ATCC 49619; [4]): 128 µg/mL; MIC, E. coli ATCC 23506 (E. coli ATCC 23506; [4]): 64 µg/mL; MIC, P. aeruginosa ATCC 9027 (P. aeruginosa ATCC 9027; [4]): 8 µg/mL; MIC, S. aureus ATCC 25923 (S. aureus ATCC 25923; [4]): 128 µg/mL; MIC, E. coli ATCC 25922 (E. coli ATCC 25922; [4]): 128 µg/mL; MIC, E. faecalis PCM 2673 (E. faecalis PCM 2673; [4]): 64 µg/mL
